The source of these data is patent publication US5977130A, “Intimal hypertrophy inhibitors” (Taiho Pharmeutical Co., Ltd., priority 1996, dated 1999).

Structures can show the parent of a compound that is named as a salt.

One assay deals with intimal hypertrophy. The assay is described as follows: Intimal Hypertrophy Inhibiting Activity in Rats, test (1): balloon denudation of thoracic aorta. Type of assay: in vivo, male S.D. rats. The conditions noted are these: Rattus norvegicus, 336 h, Dose 30 mg/kg, oral once a day, 14 days after denudation, read-out: Inhibition (%) of intimal hypertrophy (intima/media thickness ratio). The protocol: (§1) Pharmacological Test (Intimal Hypertrophy Inhibiting Activity in Rats)
(§2) By use of various compounds which serve as active ingredients of the present invention, the following tests (1) and (2) were performed in accordance with the method described in Journal of Clinical Investigation,85 (1990) 2004.
Groups of 14- to 15-week-old male S.D. rats were used. A 3F balloon catheter was inserted in each rat, under etherification, through the right iliac artery to the aorta. While the balloon was inflated, the endothelium of the thoracic aorta was denuded. Subsequently, the balloon catheter was removed, and an antibiotic was added dropwise into the abdominal cavity, followed by saturing. Each drug was suspended in 0.5% methylcellulose, and a dose of 10 ml/kg was orally administered once a day, starting from 2 hours after denudation. To the controls were administered 0.5% methylcellulose.
The rats were sacrificed 14 days after denudation. The thoracic aorta was removed and fixed with 10% neutrally-buffered formalin. Six segments cut out from the lower part of each sample were processed by a customary method to thereby prepare paraffin sections. Six specimens of the sections from each rat were stained with hematoxylin-eosin. The thickness of the neoplastic intima at the site of maximal hypertrophy and that of the media at the same site were measured, and the ratio of intimal thickness to media thickness was calculated. Assessment was performed in terms of percentage of intimal hypertrophy inhibition as determined from the intima/media thickness ratios, using as standards the data from the groups to which drugs had not been administered.
The following four different compounds (a)-(d) were used as comparative compounds: […]
For the molecule `COc1ccc(C(=C2C(=O)Nc3ccccc32)c2ccc(OC)cc2)cc1` [Compound 1, 3-[bis(4-methoxyphenyl)methylene]-oxindole], the inhibition in vivo at 30 mg/kg turned out to be 33.2%.
The same measure, in the same setting: next, `Cc1ccc(C(=C2C(=O)Nc3ccccc32)c2ccc(C)cc2)cc1` [Compound 2]: 36.5%; `O=C1Nc2ccccc2C1=C(c1ccc(O)cc1)c1ccc(O)cc1` [Compound 5]: 14.8%; `CN(C)CCOc1ccc(C(=C2C(=O)Nc3ccccc32)c2ccc(OCCN(C)C)cc2)cc1` [Compound 6]: 14.7%.
Consider `O=C1Nc2ccccc2C1=C(c1ccccc1)c1ccccc1` [Compound 7], for which the inhibition in vivo at 30 mg/kg is 34.2%.
The same measure, in the same setting: next, `COc1ccc(C(=C2C(=O)Nc3cccnc32)c2ccc(OC)cc2)cc1` [Compound 8]: 28.9%; `CCOC(=O)c1ccc2c(c1)C(=C(c1ccc(C)cc1)c1ccc(C)cc1)C(=O)N2` [Compound 9]: 26.6%; `COc1ccc(C(=C2C(=O)Nc3ccc(N(C)C)cc32)c2ccc(OC)cc2)cc1` [Compound 10]: 14.8%.
Same read-out and setting: next, `Cc1ccc(C(=C2C(=O)Nc3cc(N)ccc32)c2ccc(C)cc2)cc1` [Compound 13]: 10.9%.
On the same count and under the same terms, with `COc1ccc(C(=C2C(=O)N(CCN(C)C)c3ccccc32)c2ccc(OC)cc2)cc1` [Compound 16, 1-dimethylaminoethyl-3-[bis(4-methoxyphenyl)methylene]oxindole.HCl] the figure was 21.1%; with `COc1ccc(C(=C2C(=O)N(C)c3ccccc32)c2ccc(OC)cc2)cc1` [Compound 17], 20.9%; with `CCOC(=O)CN1C(=O)C(=C(c2ccc(OC)cc2)c2ccc(OC)cc2)c2ccccc21` [Compound 18], 34.8%.
In the case of `COc1ccc(C(=C2C(=O)N(CC(=O)N(C)C)c3ccccc32)c2ccc(OC)cc2)cc1` [Compound 20], the inhibition in vivo at 30 mg/kg was found to be 7.2%.
Still for that read-out and setting: with `CCOC(=O)CCCCCN1C(=O)C(=C(c2ccc(OC)cc2)c2ccc(OC)cc2)c2ccccc21` [Compound 22] the figure was 28%.
Same read-out and setting: with `COC(=O)c1ccc(CN2C(=O)C(=C(c3ccc(OC)cc3)c3ccc(OC)cc3)c3ccccc32)cc1` [Compound 24] the figure was 35.1%; with `COc1ccc(C(=C2C(=O)N(S(=O)(=O)c3ccc(C)cc3)c3ccccc32)c2ccc(OC)cc2)cc1` [Compound 25, 1-paratoluenesulfonyl-3-[bis(4-methoxyphenyl)methylene]oxindole], 7.6%.
Same read-out and setting: next, `COc1ccc(C(c2ccc(OC)cc2)C2C(=O)Nc3ccccc32)cc1` (stereo not shown) [Compound 27, 3-[bis(4-methoxyphenyl)methyl]oxindole]: 19.7%; `Cc1ccc(C(c2ccc(C)cc2)C2C(=O)Nc3ccccc32)cc1` (stereo not shown) [Compound 28]: 28.4%; `COc1ccc(C=C2C(=O)Nc3ccccc32)cc1` [Compound 31, 3-(4-methoxybenzylidene)-oxindole]: 40%.
For the molecule `COc1cc(C=C2C(=O)Nc3ccccc32)cc(OC)c1O` [Compound 32], the inhibition in vivo at 30 mg/kg was 34%.
Consider `COc1ccc(/C=C/C(=O)Nc2ccccc2C(=O)O)cc1OC` [a, Tranilast, reference compound], for which the inhibition in vivo at 30 mg/kg was 7.1%.
In the case of `CC(C)c1cc(C=C2C(=O)Nc3ccccc32)cc(C(C)C)c1O` [b, reference compound], the inhibition in vivo at 30 mg/kg is -26%.
On the same count and under the same terms, with `CON1C(=O)C(=Cc2cc(C(C)(C)C)c(O)c(C(C)(C)C)c2)c2ccc(Cl)cc21` [c, reference compound] the figure was -8.6%; with `O=C1Nc2ccc(O)cc2C1=Cc1cc2ccccc2[nH]1` [d, reference compound], -0.1%.

Still in this assay, the particulars now being: Rattus norvegicus, 336 h, Dose 100 mg/kg, oral once a day, 14 days after denudation, read-out: Inhibition (%) of intimal hypertrophy (intima/media thickness ratio).
For the molecule `COc1ccc(C(=C2C(=O)Nc3ccccc32)c2ccc(OC)cc2)cc1` [Compound 1, 3-[bis(4-methoxyphenyl)methylene]-oxindole], the inhibition in vivo at 100 mg/kg came out at 46.6%.
On to `Cc1ccc(C(=C2C(=O)Nc3ccccc32)c2ccc(C)cc2)cc1` [Compound 2], for which the inhibition in vivo at 100 mg/kg was 42.3%.
On the same count and under the same terms, with `COc1ccc(/C=C/C(=O)Nc2ccccc2C(=O)O)cc1OC` [a, Tranilast, reference compound] the figure was 18.1%.

The next assay deals with intimal hypertrophy. The assay is described as follows: Intimal Hypertrophy Inhibiting Activity in Rats, test (2): balloon denudation of left carotid artery. The conditions noted are these: Dose 30 mg/kg, oral once a day, 14 days after denudation. Type of assay: in vivo, male S.D. rats. How it is done:
as §1, §2
Groups of 13- to 14-week-old male S.D. rats were used. A 2F balloon catheter was inserted in each rat under etherification through the right iliac artery to the left carotid artery. While the balloon was inflated, the endothelium of the left caroid artery was denuded. Subsequently, the balloon catheter was removed, and an antibiotic was added dropwise into the abdominal cavity, followed by saturing. Each drug was suspended in 0.5% methylcellulose, and a dose of 10 ml/kg was orally administered once a day, starting from 2 hours after denudation. To the controls were administered 0.5% methylcellulose.
The rats were sacrificed 14 days after denudation The left carotid artery was removed and fixed, through perfusion, with 10% buffered formalin. Each sample was divided into six segments and the segments were processed by a customary method to thereby prepare paraffin sections. Six specimens of the sections from each rat were stained with hematoxylin-eosin. The area of the neoplastic intima and that of the media were measured, and assessment was performed in terms of percentage of intimal hypertrophy inhibition as determined from the intima/media area ratios, using as standards the data from the groups to which drugs had not been administered.
On to `Nc1ccc(C(=C2C(=O)Nc3ccccc32)c2ccc(N)cc2)cc1` [Compound 33, 3-[bis(4-aminophenyl)methylene]-oxindole], for which the “Inhibition (%) of intimal hypertrophy (intima/media area ratio)” value was 32.7%.
Consider `O=C1Nc2ccccc2C1=C(c1ccccn1)c1ccccn1` [Compound 35, 3-(di-2-pyridylmethylene)-oxindole], for which the “Inhibition (%) of intimal hypertrophy (intima/media area ratio)” value was found to be 36.8%.
The same measure, in the same setting: next, `O=C1Nc2ccccc2C1=Cc1ccccn1` [Compound 38]: 42.0%.

In another assay the test system is intimal hypertrophy.
Assay: not given
Conditions: background statement; cited from earlier work.
As for `COc1ccc(/C=C/C(=O)Nc2ccccc2C(=O)O)cc1OC` [a, Tranilast, reference compound], the “activity as intimal hypertrophy inhibitor” value was “weak activity”.
